Consider 2 compounds from US20080032959A1, “Estrogen Receptor Modulators” (priority 2004, published 2008).

Type in all cases: in vivo, mouse
The test system of experiment [1] is wild type and estrogen receptor beta knockout (βERKO) mice. Put plainly: Uterine weights after 3 days of treatment. Particulars: treated 3 days, E2 0.2 mg/kg, A 5 or 10 mg/kg, uteri collected 24 hrs after last treatment. On the procedure:
Animals (n=5/group) were treated for 3 days and brain and uteri were collected 24 hrs after last treatment.

Experiment [2] relates to PR immunoreactive cells in the hippocampus. Briefly: Murine brain PR ICC assay, hippocampus (PR regulated exclusively by ERα). Particulars: 3 days.
Protocol: (§1) Animals (n=5/group) were treated for 3 days and brains and uteri were collected 24 hours after the last treatment and processed for immunohistochemistry.
(§2) Female mice (12-16 wks of age) are ovariectomized by the vendor (C57BL/6s from Charles River) and shipped one week later. Animals are fed a soy-free rodent chow upon arrival at the Merck animal facility, where they are given an additional week to adjust to the new environment. […] Approximately 24 hours after the last dose, animals are deeply anesthetized with ketamine/xylazine and are transcardially perfused with 50 ml of 3.5% acrolein and 2% paraformaldehyde in 0.1 M sodium phosphate buffer (PB), pH 7.4. Brains are immediately removed and placed into ice cold 0.1 M PB and stored at 4 C overnight. Brains are sectioned at 40 μm on a vibrating microtome in 0.1M PB, transferred into cryoprotectant (30% sucrose; 30% ethylene glycol in 0.1 M PB, pH 7.4) and stored at −20° C. until processing for immunocytochemistry.
Free floating 40 μm sections are washed in cold 0.1 M phosphate buffered saline (PBS), pH 7.4, to thoroughly remove cryoprotectant. To insure consistent immunolabeling across animals, a screen-bottom 24-well tissue holder and fitted solid lucite tray containing buffer is used to conduct the experiment. Thus, all sections are co-incubated in the same solutions/conditions during the entire experiment. […]
Experiment [3] deals with Progesterone receptor (PR) protein in the dorsal raphe nucleus. Put plainly: Murine brain progestin receptor (PR) ICC assay, dorsal raphe nucleus. Particulars: for PR induction in the dorsal raphe nucleus: βERKO mouse lacking functional ERβ, treated 3 days, E2 0.2 mg/kg, A 5 or 10 mg/kg, immunohistochemistry 24 h after last treatment.
Protocol: as §1, §2
Free floating 40 μm sections are washed in cold 0.1 M phosphate buffered saline (PBS), pH 7.4, to thoroughly remove cryoprotectant. To insure consistent immunolabeling across animals, a screen-bottom 24-well tissue holder and fitted solid lucite tray containing buffer is used to conduct the experiment. Thus, all sections are co-incubated in the same solutions/conditions during the entire experiment. To deter non-specific staining in acrolein-fixed tissue, sections are washed in 1% sodium borohydride (NaBH4) in PBS for 30 minutes and rinsed 8 to 10 times with PBS. Endogenous peroxidase activity is inhibited by washing tissue in 0.3% hydrogen peroxide and 10% methanol in PBS for 15 minutes. Sections are washed in PBS and blocked in either 1) 2% normal goat serum in PBS with 0.05% Triton X-100 (PBST) for one hour, or 2) a mouse-on-mouse Ig blocking reagent (Vector) for 1 hour followed by a mouse protein concentrate (Vector) for 30 min. Sections are incubated with PR antibody in blocking buffer diluted to 1% normal serum over one night at RT and one night at 4 C, or three nights at 4 C. […]

The structures appear in SMILES notation.

For `C[C@]12CC[C@H]3[C@@H](CC=C4C[C@@H](O)CC[C@@]43C)[C@@H]1CC[C@@H]2O` [A, delta-5-androstene-3-beta-17-beta-diol], the uterine weight entry in experiment [1] is “only a modest effect”. For the same compound, the “PR immunoreactive cells in the hippocampus” value in experiment [2] (5 mg/kg) is listed as “no PR immunoreactivity”; in experiment [2] (high dose 10 mg/kg), “just an occasional, lightly-stained cell”. For the same compound, in experiment [3] (at the doses tested (A 5 or 10 mg/kg), 3 days), the “ER-beta activity in brain” value is “full ER-beta activity in brain”. The “PR induction in the dorsal raphe nucleus” value in experiment [3] is reported as “complete loss of PR induction”.
For the compound `C[C@]12CC[C@@H]3c4ccc(O)cc4CC[C@H]3[C@@H]1CC[C@@H]2O` [E2, 17β-estradiol, reference compound], the uterine weight entry in experiment [1] is reported as “robustly increased uterine weight”. Besides, the “PR induction in the dorsal raphe nucleus” value in experiment [3] is on record as “attenuation of PR induction”.
